# Measurements reported in EP0845217A1, “Inhibiting undesirable taste in oral compositions” (priority 1996, dated 1998).
# Legend:
# [1] = molecular target: alkaline phosphatase (Bos taurus, UniProt P19111); type: biochemical, bovine; details: PNPP substrate
# Procedure: Enzyme kinetics experiments are done using purified alkaline phosphatase from bovine intestine and the substrate para-nitrophenyl phosphate (PNPP). The formation of colored para-nitrophenol (PNP) from colorless PNPP is followed by measuring the color formation in the presence of inhibitor at several concentrations.
# Specifically, enzyme reactions are done in a volume of 200 ul containing 12.5 mU/ml alkaline phosphatase, PNPP at concentrations between 0.5-200 mM, and an inhibitor at concentrations between 0-100 mM. […] Phosphoserine is the natural substrate for this enzyme. The final buffer solution is 0.9 M diethanolamine and 0.5 mM […], pH 9.8, mixed 3:1 (v:v) with water. Reactions are done in a 96-well microtiter plate. The enzyme reaction is initiated by the addition of the enzyme. Each reaction mixture is done in triplicate. The enzyme reaction is monitored by measuring the optical density (OD) at 405 nm, with a reference OD of 490 nm. The OD's are read every 30 seconds over a 15 minute period at room temperature. PNP concentration is determined based on a standard curve correlating OD405/490 vs. PNP concentration. […] The data is then transformed and plotted as the Kmapp / Vmax. vs. inhibitor concentration. From these plots the dissociation constant of the enzyme-inhibitor complex, Ki, is determined. The x-intercept on this plot equals (-Ki). […]
# [2] = test system: human taste response to bitter-tasting compounds; assay: Human taste test: paired comparisons of bitter-tasting compounds with and without VMP; type: in vivo; details: inhibitor 0.3%; for Cert. (%): mean certainty score
# Source text: In this test all samples contain 5% sucrose. […] Subjects rate which sample is most bitter, and also indicate on a 7 point scale the certainty of their choice. […] However, it inhibits bitterness of phenylpropanolamine and guaifenesin to a lesser degree.
# [3] = acetaminophen 10.00 mM, total # responses 4
# [4] = acetaminophen 32.00 mM, total # responses 5
# [5] = chlorpheniramine maleate 0.100 mM, total # responses 4
# [6] = chlorpheniramine maleate 1.000 mM, total # responses 4
# [7] = dextromethorphan 0.320 mM, total # responses 4
# [8] = guaifenesin 0.320 mM, total # responses 4
# [9] = guaifenesin 3.200 mM, total # responses 4
# [10] = guaifenesin 10.00 mM, total # responses 4
# [11] = phenylpropanolamine HCl 3.200 mM, total # responses 5
# [12] = phenylpropanolamine HCl 10.00 mM, total # responses 5
# [13] = pseudoephedrine HCl 0.320 mM, total # responses 5
# [14] = pseudoephedrine HCl 1.000 mM, total # responses 5
# [15] = sucrose octaacetate 0.001 mM, total # responses 5
# [16] = sucrose octaacetate 0.003 mM, total # responses 5
# Sequence of alkaline phosphatase (P19111 20-506): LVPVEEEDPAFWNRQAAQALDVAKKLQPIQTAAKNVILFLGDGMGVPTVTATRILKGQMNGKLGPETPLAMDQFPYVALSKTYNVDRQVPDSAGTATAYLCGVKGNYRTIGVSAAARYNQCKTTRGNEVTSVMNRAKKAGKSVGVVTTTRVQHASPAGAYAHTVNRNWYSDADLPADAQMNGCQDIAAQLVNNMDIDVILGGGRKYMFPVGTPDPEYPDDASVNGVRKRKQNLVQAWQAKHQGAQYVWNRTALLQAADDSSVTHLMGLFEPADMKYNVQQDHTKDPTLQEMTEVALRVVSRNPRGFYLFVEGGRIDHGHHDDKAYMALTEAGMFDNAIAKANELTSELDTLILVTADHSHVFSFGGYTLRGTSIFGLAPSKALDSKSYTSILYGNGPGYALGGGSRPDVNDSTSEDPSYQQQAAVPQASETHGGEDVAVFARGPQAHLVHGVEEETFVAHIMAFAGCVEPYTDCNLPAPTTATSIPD
substance,measurement,setting,value
vanillylmonophosphate [VMP],type of inhibition of alkaline phosphatase,[1],competitively inhibited
same,Cert. (%),[2]; acetaminophen 10.00 mM,43%
same,Corr./Tot.,[2]; [3],0.50
same,Correct # responses,[2]; [3],2
same,Cert. (%),[2]; acetaminophen 32.00 mM,29%
same,Corr./Tot.,[2]; [4],0.80
same,Correct # responses,[2]; [4],4
same,Cert. (%),[2]; chlorpheniramine maleate 0.100 mM,54%
same,Corr./Tot.,[2]; [5],1.00
same,Correct # responses,[2]; [5],4
same,Cert. (%),[2]; chlorpheniramine maleate 1.000 mM,71%
same,Corr./Tot.,[2]; [6],1.00
same,Correct # responses,[2]; [6],4
same,Cert. (%),[2]; dextromethorphan 0.320 mM,82%
same,Corr./Tot.,[2]; [7],1.00
same,Correct # responses,[2]; [7],4
same,Cert. (%),[2]; guaifenesin 0.320 mM,14%
same,Corr./Tot.,[2]; [8],0.50
same,Correct # responses,[2]; [8],2
same,Cert. (%),[2]; guaifenesin 3.200 mM,36%
same,Corr./Tot.,[2]; [9],0.50
same,Correct # responses,[2]; [9],2
same,Cert. (%),[2]; guaifenesin 10.00 mM,57%
same,Corr./Tot.,[2]; [10],0.75
same,Correct # responses,[2]; [10],3
same,Cert. (%),[2]; phenylpropanolamine HCl 3.200 mM,11%
same,Corr./Tot.,[2]; [11],0.40
same,Correct # responses,[2]; [11],2
same,Cert. (%),[2]; phenylpropanolamine HCl 10.00 mM,49%
same,Corr./Tot.,[2]; [12],0.80
same,Correct # responses,[2]; [12],4
same,Cert. (%),[2]; pseudoephedrine HCl 0.320 mM,14%
same,Corr./Tot.,[2]; [13],0.60
same,Correct # responses,[2]; [13],3
same,Cert. (%),[2]; pseudoephedrine HCl 1.000 mM,34%
same,Corr./Tot.,[2]; [14],0.40
same,Correct # responses,[2]; [14],2
same,Cert. (%),[2]; sucrose octaacetate 0.001 mM,20%
same,Corr./Tot.,[2]; [15],0.20
same,Correct # responses,[2]; [15],1
same,Cert. (%),[2]; sucrose octaacetate 0.003 mM,23%
same,Corr./Tot.,[2]; [16],0.40
same,Correct # responses,[2]; [16],2
